# Source: the supplement of paper PMC10307832
# Assays:
# Assay in all cases: relative viability (nuclei count vs DMSO), 5 days (fraction); higher = more cells survive
# Everolimus + Navitoclax = compound: CO[C@H]1C[C@@H]2CC[C@@H](C)[C@@](O)(O2)C(=O)C(=O)N2CCCC[C@H]2C(=O)O[C@H]([C@H](C)C[C@@H]2CC[C@@H](OCCO)[C@H](OC)C2)CC(=O)[C@H](C)/C=C(\C)[C@@H](O)[C@@H](OC)C(=O)[C@H](C)C[C@H](C)/C=C/C=C/C=C/1C [Everolimus] + CC1(C)CCC(c2ccc(Cl)cc2)=C(CN2CCN(c3ccc(C(=O)NS(=O)(=O)c4ccc(N[C@H](CCN5CCOCC5)CSc5ccccc5)c(S(=O)(=O)C(F)(F)F)c4)cc3)CC2)C1 [Navitoclax] (partner 0.5 µM)
# Summary of the method: (§1)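 Relative viability is defined as nuclei in treated wells over nuclei in vehicle wells. Duplicate plates were run and medians reported. Lung cancer cell lines in 1536-well plates were dosed by pin tool one day after seeding, with one drug or with a fixed anchor-drug dose plus five library-drug doses (not always all listed) in √10 steps, and nuclei were counted after 5 days.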
# Everolimus + Crizotinib = compound: CO[C@H]1C[C@@H]2CC[C@@H](C)[C@@](O)(O2)C(=O)C(=O)N2CCCC[C@H]2C(=O)O[C@H]([C@H](C)C[C@@H]2CC[C@@H](OCCO)[C@H](OC)C2)CC(=O)[C@H](C)/C=C(\C)[C@@H](O)[C@@H](OC)C(=O)[C@H](C)C[C@H](C)/C=C/C=C/C=C/1C [Everolimus] + C[C@@H](Oc1cc(-c2cnn(C3CCNCC3)c2)cnc1N)c1c(Cl)ccc(F)c1Cl [Crizotinib] (partner 1 µM)
# Summary of the method: as §1
# Everolimus + Dasatinib = compound: CO[C@H]1C[C@@H]2CC[C@@H](C)[C@@](O)(O2)C(=O)C(=O)N2CCCC[C@H]2C(=O)O[C@H]([C@H](C)C[C@@H]2CC[C@@H](OCCO)[C@H](OC)C2)CC(=O)[C@H](C)/C=C(\C)[C@@H](O)[C@@H](OC)C(=O)[C@H](C)C[C@H](C)/C=C/C=C/C=C/1C [Everolimus] + Cc1nc(Nc2ncc(C(=O)Nc3c(C)cccc3Cl)s2)cc(N2CCN(CCO)CC2)n1 [Dasatinib] (partner 0.075 µM)
# Summary of the method: as §1
# Everolimus + Vorinostat = compound: CO[C@H]1C[C@@H]2CC[C@@H](C)[C@@](O)(O2)C(=O)C(=O)N2CCCC[C@H]2C(=O)O[C@H]([C@H](C)C[C@@H]2CC[C@@H](OCCO)[C@H](OC)C2)CC(=O)[C@H](C)/C=C(\C)[C@@H](O)[C@@H](OC)C(=O)[C@H](C)C[C@H](C)/C=C/C=C/C=C/1C [Everolimus] + O=C(CCCCCCC(=O)Nc1ccccc1)NO [Vorinostat] (partner 1 µM)
# Summary of the method: as §1
Cell Line,relative viability (Everolimus + Navitoclax; first compound 0.01 µM),relative viability (Everolimus + Navitoclax; first compound 0.03162 µM),relative viability (Everolimus + Navitoclax; first compound 0.1 µM),relative viability (Everolimus + Navitoclax; first compound 0.3162 µM),relative viability (Everolimus + Navitoclax; first compound 1 µM),relative viability (Everolimus + Crizotinib; first compound 0.01 µM),relative viability (Everolimus + Crizotinib; first compound 0.03162 µM),relative viability (Everolimus + Crizotinib; first compound 0.1 µM),relative viability (Everolimus + Crizotinib; first compound 0.3162 µM),relative viability (Everolimus + Crizotinib; first compound 1 µM),relative viability (Everolimus + Dasatinib; first compound 0.01 µM),relative viability (Everolimus + Dasatinib; first compound 0.03162 µM),relative viability (Everolimus + Dasatinib; first compound 0.1 µM),relative viability (Everolimus + Dasatinib; first compound 0.3162 µM),relative viability (Everolimus + Dasatinib; first compound 1 µM),relative viability (Everolimus + Vorinostat; first compound 0.01 µM),relative viability (Everolimus + Vorinostat; first compound 0.03162 µM),relative viability (Everolimus + Vorinostat; first compound 0.1 µM),relative viability (Everolimus + Vorinostat; first compound 0.3162 µM),relative viability (Everolimus + Vorinostat; first compound 1 µM)
NCI-H520,0.537,0.454,0.421,0.535,0.445,0.478,0.398,0.426,0.354,0.353,0.118,0.143,0.176,0.144,0.176,0.455,0.373,0.439,0.394,0.387
LK-2,0.851,0.557,0.408,0.508,0.461,0.24,–,0.22,0.284,0.227,0.231,–,0.239,0.209,0.306,0.243,0.174,0.188,0.21,0.189
NCI-H1993,0.687,0.676,0.631,0.585,0.717,0.688,0.659,0.702,0.642,0.705,0.434,0.449,0.341,0.409,0.452,0.429,0.488,0.438,0.377,0.508
NCI-H838,0.57,0.54,0.499,0.588,0.495,0.581,0.548,0.416,0.525,0.357,0.262,0.243,0.265,0.274,0.333,0.541,0.539,0.554,0.573,0.471
NCI-H1437,0.913,0.89,0.836,0.804,0.661,0.969,0.903,0.782,0.873,0.648,0.243,0.267,0.21,0.209,0.317,0.747,0.632,0.656,0.586,0.432
NCI-H2170,0.235,0.22,0.202,0.184,0.236,0.59,0.587,0.455,0.537,0.49,0.366,0.292,0.312,0.302,0.262,0.326,0.314,0.27,0.309,0.338
NCI-H441,0.658,0.577,0.79,0.73,0.482,0.881,0.65,0.606,0.766,0.723,0.55,0.501,0.431,0.504,0.47,0.701,0.789,0.55,0.669,0.589
SK-LU-1,0.529,0.48,0.494,0.568,0.475,0.478,0.511,0.572,0.544,0.626,0.16,0.166,0.177,0.176,0.188,0.52,0.52,0.587,0.538,0.527
BEN,0.0532,0.0623,0.063,0.0598,0.0645,0.573,0.391,0.311,0.387,0.328,0.221,0.209,0.217,0.236,0.211,0.401,0.337,0.368,0.353,0.391
LC-2-ad,0.339,0.245,0.284,0.245,0.236,0.542,0.48,0.384,0.449,0.417,0.544,0.51,0.515,0.427,0.505,0.851,0.865,0.759,0.79,0.728
COR-L23,0.706,0.597,0.662,0.636,0.765,0.515,0.597,0.623,0.666,0.635,0.429,0.498,0.432,0.497,0.485,0.322,0.336,0.308,0.381,0.367
NCI-H1650,1.2,0.824,1.06,1.2,0.876,0.922,1.06,0.918,1,0.719,0.288,0.225,0.263,0.315,0.295,0.396,0.388,0.29,0.365,0.383
RERF-LC-KJ,0.778,0.571,0.47,0.579,0.488,0.804,0.627,0.683,0.667,0.567,0.589,0.573,0.483,0.549,0.457,0.552,0.461,0.446,0.478,0.49
NCI-H1915,0.782,0.774,0.737,0.72,0.749,0.849,0.784,0.798,0.711,0.753,0.285,0.231,0.208,0.247,0.206,0.389,0.387,0.431,0.37,0.364
NCI-H596,0.427,0.361,0.394,0.374,0.369,0.677,0.65,0.631,0.619,0.683,0.395,0.428,0.392,0.462,0.482,0.505,0.741,0.414,0.421,0.419
